From the supplement of paper PMC10307832

Key:
Test in all cases: relative viability (nuclei count vs DMSO), 5 days (fraction); higher = more cells survive
[1] = compound: CC1=C(CC(=O)O)c2cc(F)ccc2/C1=C\c1ccc([S+](C)[O-])cc1 [Sulindac] + Cc1nc(Nc2ncc(C(=O)Nc3c(C)cccc3Cl)s2)cc(N2CCN(CCO)CC2)n1 [Dasatinib] (partner 0.075 µM)
How it was run: (§1)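 Each reported value is a median over duplicate plates. It expresses relative viability: treated-well nuclei count divided by vehicle-well nuclei count. Lung cancer cell lines in 1536-well plates were dosed by pin tool a day after seeding, alone with one drug or with a fixed anchor-drug dose plus five library-drug doses (not always all listed) in √10 steps, and nuclei were counted after 5 days.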

[2] = compound: CN[C@@H]1C[C@H]2O[C@@](C)([C@@H]1OC)n1c3ccccc3c3c4c(c5c6ccccc6n2c5c31)C(=O)NC4 [Staurosporine] + Cc1nc(Nc2ncc(C(=O)Nc3c(C)cccc3Cl)s2)cc(N2CCN(CCO)CC2)n1 [Dasatinib] (partner 0.075 µM)
How it was run: as §1

[3] = compound: O=c1[nH]cc(F)c(=O)[nH]1 [5-Fluorouracil] + CS(=O)(=O)CCNCc1ccc(-c2ccc3ncnc(Nc4ccc(OCc5cccc(F)c5)c(Cl)c4)c3c2)o1 [Lapatinib] (partner 2 µM)
How it was run: as §1

[4] = compound: O=c1[nH]cc(F)c(=O)[nH]1 [5-Fluorouracil] + N=C(N)NC(=N)NCCc1ccccc1 [Phenformin] (partner 250 µM)
How it was run: as §1

Cell Line	relative viability ([1]; first compound 0.08 µM)	relative viability ([1]; first compound 0.253 µM)	relative viability ([1]; first compound 2.53 µM)	relative viability ([1]; first compound 8 µM)	relative viability ([2]; first compound 0.005 µM)	relative viability ([2]; first compound 0.01581 µM)	relative viability ([2]; first compound 0.05 µM)	relative viability ([2]; first compound 0.1581 µM)	relative viability ([2]; first compound 0.5 µM)	relative viability ([3]; first compound 0.02 µM)	relative viability ([3]; first compound 0.2 µM)	relative viability ([3]; first compound 0.6325 µM)	relative viability ([3]; first compound 2 µM)	relative viability ([4]; first compound 0.2 µM)	relative viability ([4]; first compound 0.6325 µM)	relative viability ([4]; first compound 2 µM)	relative viability ([1]; first compound 0.8 µM)	relative viability ([4]; first compound 0.02 µM)
NCI-H1915	0.345	0.335	0.291	0.322	0.212	0.0927	0.204	0.0847	0.0869	0.908	0.999	0.97	0.724	0.34	0.355	0.361		
COR-L23	0.478	0.419	0.489	0.744	0.309	0.186	0.17	0.112	0.0512	1.03	0.921	0.48	0.253	0.427	0.278	0.228	0.438	0.4
HOP-62	0.696	0.652	0.718	0.646	0.343	0.164	0.109	0.124	0.0982	0.797	1.03	0.986	0.956	0.728	0.636	0.644		0.617
NCI-H1975	0.411	0.315	0.353	0.375	0.29	0.177	0.152	0.1	0.0812	0.879	1.09	0.495	0.333	0.357	0.266	0.194	0.345	0.385
BEN	0.311	0.317	0.288	0.384	0.288	0.288	0.356	0.236	0.167	0.658	0.628	0.615	0.602	0.257	0.285	0.251	0.314	0.255
NCI-H1437	0.405	0.462	0.399	0.444	0.391	0.208	0.285	0.173	0.134		0.231	0.142	0.142	0.192	0.137	0.173	0.293	0.238
EMC-BAC-2	0.269	0.323	0.314	0.367	0.213	0.197	0.198	0.167	0.152	0.968	0.975	0.858	0.907	0.542	0.498	0.51	0.378	0.625
SW 1573	0.392	0.691	0.574	0.497	0.129	0.116	0.0863	0.0538	0.0496	1.09	1.32	0.546	0.885	0.42	0.385	0.246		0.475
NCI-H661	0.966	0.842	0.807	1.08	0.67	0.349	0.381	0.347	0.123	0.482	0.526	0.558	0.51		0.284	0.287	0.759	0.274
LXF-289	0.24	0.223	0.25	0.225	0.119	0.068	0.112	0.0474	0.0343	0.897	0.782	0.333	0.285	0.428	0.332	0.297	0.227	0.507
LOU-NH91	0.65	0.53	0.54	0.573	0.36	0.285	0.299	0.286	0.203	0.777	0.83	0.497	0.406	0.858	0.589	0.298	0.481	0.731
NCI-H2347	0.282	0.25	0.303	0.275	0.226	0.212	0.19	0.233	0.232	1.07	0.796	0.48	0.436	0.489	0.24	0.328		0.296
NCI-H2009	0.297	0.322	0.256	0.344	0.197	0.158	0.152	0.153	0.116	0.941	0.919	0.764	0.812	0.548	0.438	0.401	0.305	0.551
HCC-827	0.348	0.412	0.319	0.338	0.391	0.423	0.372	0.319	0.305	0.159	0.203	0.191	0.187	0.37	0.414	0.29	0.251	0.363
NCI-H727	0.345	0.333	0.394	0.412	0.47	0.579	0.363	0.235	0.184	1.08	1	0.743	0.594	0.472	0.489	0.495		0.532
CAL-12T	0.317	0.391	0.371	0.341	0.14	0.0881	0.0772	0.107	0.0737	0.573	0.897	0.649	0.559	0.614	0.37	0.425	0.324	0.616
PC-3 [JPC-3]	0.878	1.05	1.02	1.04		0.424	0.375	0.235	0.204	0.479	0.48	0.485	0.476	0.476	0.496	0.45	0.772	0.48
NCI-H23	0.856		0.755	0.78	0.833		0.259	0.13	0.154	1.11	1.09	0.545	0.268	0.897	0.438	0.298	0.801	0.686
NCI-H838	0.275	0.334	0.281	0.34	0.267	0.203	0.225	0.177	0.178	0.918	1.03	0.433	0.271	0.609	0.364	0.245	0.311	0.544
HCC-366	0.715	0.699	0.587	0.622	0.981		0.22	0.0316	0.022	0.996	0.945	0.523	0.0471	0.622	0.424	0.0966	0.578	0.562
NCI-H1666	0.945	0.875	0.871	0.995	0.602	0.419	0.484	0.261	0.196	0.726	0.418	0.378	0.318	0.447	0.392	0.392	0.716	0.582
A-427	0.92	0.76	0.714	0.755	0.5	0.206	0.183	0.0891	0.128	1.02	1.07	1.07	0.792	0.461	0.279	0.212	0.547	0.29
NCI-H460	0.616	0.461	0.489	0.658	0.575	0.27	0.375	0.0523	0.009	0.964	0.446	0.106	0.0598	0.447	0.109	0.0647	0.482	0.551
ABC-1	0.506	0.53		0.673	0.341	0.193	0.167	0.109	0.139	1.33	1.23	1.24	1.13	0.253	0.257	0.23	0.434	0.202
LK-2	0.325	0.215		0.313	0.551		0.271	0.139	0.121	1.17	1.08	0.697	0.535	0.582	0.57	0.381		0.597
NCI-H2085	0.209	0.219	0.238	0.213	0.244	0.257	0.271	0.235	0.242	0.654	0.957	0.923	0.704	0.844	0.761	0.68	0.27	0.577
NCI-H650	0.52	0.462	0.466	0.47	0.284	0.264	0.271	0.229	0.223	0.555	0.681	0.524	0.455	0.339	0.328	0.319	0.469	0.406
SK-MES-1	0.336	0.367	0.352	0.331	0.21	0.22	0.154	0.126	0.106	0.471	0.494	0.373	0.357	0.4	0.331	0.242	0.366	0.748
NCI-H1793	0.431	0.38	0.408	0.398	0.457		0.302	0.141	0.144	0.581	0.853	0.471	0.347	0.476	0.42	0.266	0.369	0.467
NCI-H3122	0.79	0.825	0.705	0.894	0.861		0.756	0.232	0.0614	0.994	0.903	0.338	0.246	0.349	0.21	0.174	0.74	0.366
